Reference: patent US20110064773A1, “PHARMACEUTICAL COMPOSITIONS COMPRISING A THYROID HORMON AND THEIR THERAPEUTIC USE” (UNIVERSITE JOSEPH FOURIER, priority 2007, published 2011)
Entries after “also recorded” stand apart in the source; their conditions may differ.

Tests used:
Type in all cases: in vivo, rat
Wistar rats [1] = experiment: Growth rate (body weight) and food intake of Wistar rats; settings: for Body mass: 2.5 μg/100 g continuous
Method: (§1) Adult male rat bred in the animal room facilities of Laboratory of Fundamental and Applied Bioenergetics (Wistar strain) or purchased from Charles-River Laboratories, Domaine des oncins, L'ARBRESLE France [(genetically obese normoglycemic (Zucker or Fa/Fa) or diabetic (ZDF)] were caged individually in stainless steel hanging cages and maintained in a 22° C., 50±10% relative humidity and 12 h:12 h light:dark environment. All animals were fed ad libitum with a standard rat chow (Safe A04, Villemoisson, France) and tap water. Body mass and food intake were recorded twice/thrice a week and fresh food was provided at the same time to ensure minimal disturbance to the animals' food behavior.
Eight-week old rats (300 g±10 g) were anesthetized by simultaneous intraperitoneal injection of diazepam 4 mg/kg and ketamine 100 mg/kg. In order to maintain body temperature during the surgery (10 min), animals were placed on a warm blanket. After interscapular shaving, a small incision of 0.5 cm of the skin allows the subcutaneous implantation of a small pellet (containing rT3 or 3′,3-T2) with a 10-gauge precision trochar. The pellets, manufactured by Innovative Research of America (Sarasota, Fla., USA) are constituted of a biodegradable matrix that effectively and continuously release the active product in the animal.
[…] (reverseT3) or 3-3′ diiodothyronine (3-3′ T2) were used at different doses (5, 0.5, or 0.1 mg/pellet) were implanted in order to provide a continuous and constant drug delivery over 60 days (which represents 25 μg, 2.5 μg or 0.5 μg/day/100 g BW).
Wistar rats were treated with rT3 hormone by a daily intraperitoneal injection (IP) (25 μg/100 g BW), a daily sub-cutaneous injection (SC) (25 μg/100 g BW), or a per os administration included in the rat food (25 μg/100 g BW). The continuous and constant administration was performed by using a pellet (25 μg/100 g BW).
However the role of the administration site was further investigated by comparing continuous administration of rT3 by osmotic pump implanted either subcutaneously or intraperitonally with the reference treatment administered by sub-cutaneous pellets. Wistar rats were treated for 21 days with placebo, sub-cutaneous pellet or sub-cutaneous or intraperitoneal osmotic pumps. rT3 was administered continuously (2.5 μg/100 g).
Wistar rats were treated by a continuous and constant administration of low doses of rT3 by 3 different methods of administration: • a sub-cutaneous pellet, • an osmotic pump placed under the skin, and • an osmotic pump placed in the peritoneal cavity.

ZDF rats [2] = experiment: Body weight and food intake of ZDF rats; settings: 2.5 μg/100 g BW/day, 21 days
Method: as §1
(§2) Then ZDF rats were treated with low doses of rT3 for 21 days (2.5 μg/100 g BW/day) and the glycaemia, insulinaemia were measured after 8, 16 and 21 days.

ZDF rats [3] = experiment: Glycaemia, insulinaemia and pancreas mass in ZDF diabetic rats
Method: Rats were genetically obese normoglycemic (Zucker or Fa/Fa), 10-11 week-old diabetic rats (ZDF), genetic non-overweight diabetic (type 2 diabetes) rats (Goto-Kakizaki (GK) model), non-overweight diabetic (type 2 diabetes) rats n0STZ model or normal Wistar rats submitted to an 8-week high-fat high sucrose diet (a model of nutritional induction of insulin resistance).
The day of the study, after a fasted period overnight (18 h), blood samplings will be taken in awaked rats from the tail vein.
Insulin levels were determined with commercial kits (Linco Research).
Glucose and 3-hydroxybutyrate (3-HB) were measured enzymatically and non esterified fatty acid (NEFA) by colorimetric assay (Wako Chemicals).
ZDF diabetic rats are a good model for studying the anti-diabetic treatments, since these animals develop a major hyperglycaemia during their life due to the combination of moderate obesity and pancreas degeneracy. To date, treatments are ineffective when the hyperglycaemia is established.
as §2

ZDF rats [4] = experiment: Indirect calorimetry (EE, RQ) of ZDF rats
Excerpt: Energy expenditure as well as the nature of substrate oxidized (carbohydrates or lipids) were investigated by indirect calorimetry. This principle is based on the determinations of CO2 release (VCO2) and O2 consumption (VO2) by each animal. It assumes that O2 is entirely involved in substrate oxidation in the respiratory chain (leading to water production) while CO2 release is related to substrate decarboxylation (in the Krebs' cycle). These measurements allow assessing energy expenditure (EE) and respiratory quotient ([…], RQ). EE represent the absolute energy dissipation during rest and activity. RQ is a relative measurement indicating the ratio of carbohydrate versus lipid involved in oxidative pathway. A ratio of 1.0 indicates exclusive carbohydrate oxidation while a ratio of 0.7 indicates exclusive lipid oxidation. Each value between these two extreme values indicates the relative proportion of each substrate (of note protein oxidation was not evaluated). As an example, RQ approaches 0.7 during fasting, indicating lipid oxidation, conversely after feeding RQ increases close to 1 indicating carbohydrate oxidation resulting from food intake and blood insulin rise. Likewise, animals fed high-carbohydrate diets have higher RQs than those fed high-fat diets.
The indirect calorimetry system (Panlab, Barcelona, Spain) consists of cages, pumps, flow controllers, valves, and analyzers. It is computer-controlled in order to sequentially measure O2 and CO2 concentrations as well as air flow in four separate cages allowing four simultaneous determinations. Rats are isolated in one of the four metabolic chambers, and room air is used as a reference to monitor ambient O2 and CO2 concentrations periodically.
At predefined intervals, the computer sends a signal to store differential CO2 and O2 concentrations, flow rate, allowing computing VCO2, VO2, RQ, and EE (Weir equation) with data acquisition hardware (Metabolism, Panlab, Barcelona, Spain).

Wistar rats [5] = experiment: Growth rate (body weight) and food intake of Wistar rats; settings: ultra low dose 0.25 μg/100 g BW, vs placebo

Structure (SMILES): N[C@@H](Cc1ccc(Oc2cc(I)c(O)c(I)c2)c(I)c1)C(=O)O [rT3, 3′,5′,3-triiodothyronine]
- Body mass (Wistar rats [1]; osmotic pump in the peritoneal cavity, 21 days): significant reduction
- Body mass (Wistar rats [1]; osmotic pump under the skin, 21 days): significant reduction
- Food intake immediately after the pellet (Wistar rats [1]; 25 μg/100 g BW pellet, from day 4 until day 7): decrease
- Influence on the animal mass (rat body weight) (Wistar rats [1]; 25 μg/100 g BW/day, continuous and constant administration (subcutaneous pellet), 8 days): reduce the rat body weight
- Growth rate (body weight) (Wistar rats [1]; high dose 25 μg/100 g BW, subcutaneous pellet, 21 days, vs placebo): did not show any weight gain; also recorded: reduce the body weight
- Appetite (food intake) (Wistar rats [1]; low dose 2.5 μg/100 g BW): without modifying their appetite
- Body weight (body mass) (Wistar rats [1]; low dose 2.5 μg/100 g BW, sub-cutaneous pellet, 21 days, vs placebo): reduce the body weight; also recorded: significant reduction
- Appetite (food intake) (ZDF rats [2]): not associated with a loose of appetite
- Animal mass (body weight) (ZDF rats [2]; vs placebo): slimmer; also recorded: reduced
- Insulin level (blood insulin concentration) (ZDF rats [3]; 2.5 μg/100 g BW/day, up to 21 days, placebo progressively decreases): maintained; also recorded: increasing plasmatic insulin concentration
- Pancreas mass (ZDF rats [3]; 2.5 μg/100 g BW/day, vs placebo): increased
- Glycaemia (blood glucose concentration) (ZDF rats [3]; low dose 2.5 μg/100 g BW/day, 8, 16 and 21 days, vs placebo): large reduction; also recorded: decreasing glucose concentration
- Energy expenditure (ZDF rats [4]; 2.5 μg/100 g BW, vs placebo): enhanced
- Respiratory quotient (RQ) (ZDF rats [4]; 2.5 μg/100 g BW, vs placebo): enhanced
- Energy expenditure, enhancement (ZDF rats [4]; low dose of rT3): +50%
- Body weight (Wistar rats [5]): also reduce the body weight
